Each block holds one compound with its values, some of them ahead of it.
What was measured:
[1] = tested on: Rattus norvegicus; test: Anti-platelet activity against ADP-induced platelet aggregation in rat assessed as inhibition of platelet aggregation at 2 mg/kg relative to control; type: functional
[2] = tested on: Rattus norvegicus; test: Anti-platelet activity against ADP-induced platelet aggregation in rat assessed as inhibition of platelet aggregation at 0.5 mg/kg relative to control; type: functional
[3] = tested on: Rattus norvegicus; test: Anti-platelet activity against ADP-induced platelet aggregation in rat assessed as inhibition of platelet aggregation at 1 mg/kg relative to control; type: functional
[4] = tested on: Rattus norvegicus; test: Anti-platelet activity against ADP-induced platelet aggregation in rat assessed as inhibition of platelet aggregation at 4 mg/kg relative to control; type: functional
[5] = tested on: Rattus norvegicus; test: Anti-platelet activity against ADP-induced platelet aggregation in rat assessed as inhibition of platelet aggregation at 8 mg/kg relative to control; type: functional
[6] = species: Rattus norvegicus; test: Anti-platelet activity against ADP-induced platelet aggregation in rat assessed as inhibition of platelet aggregation; type: functional
[7] = species: Rattus norvegicus; test: animal or person; conditions: Platelet, read-out: INH
Description: Anti-platelet activity against ADP-induced platelet aggregation in rat assessed as inhibition of platelet aggregation at 5 mg/kg relative to control

[8] = Stability in human plasma assessed as compound remaining measured at 90 mins relative to control; type: ADME, cell-free; conditions: read-out: Stability
[9] = Stability in human plasma assessed as compound remaining measured at 5 mins relative to control; type: ADME, cell-free; conditions: read-out: Stability
[10] = Stability in human plasma assessed as compound remaining measured at 10 mins relative to control; type: ADME, cell-free; conditions: read-out: Stability
[11] = Stability in human plasma assessed as compound remaining measured at 20 mins relative to control; type: ADME, cell-free; conditions: read-out: Stability
[12] = tested on: Rattus norvegicus; test: Inhibition of thrombosis in anteriovenous bypassed rat at 10 mg/kg relative to control; type: functional
[13] = species: Rattus norvegicus; test: animal or person; conditions: Platelet, read-out: INH; remark: listed apart in the source
Description: Anti-platelet activity against ADP-induced platelet aggregation in rat assessed as inhibition of platelet aggregation at 2.5 mg/kg relative to control

[14] = Stability in human plasma assessed as compound remaining measured at 30 mins relative to control; type: ADME, cell-free; conditions: read-out: Stability
[15] = species: Rattus norvegicus; test: animal or person; conditions: Platelet, read-out: INH; remark: listed apart in the source
Description: Anti-platelet activity against ADP-induced platelet aggregation in rat assessed as inhibition of platelet aggregation at 10 mg/kg relative to control

[16] = Stability in human plasma assessed as compound remaining measured at 45 mins relative to control; type: ADME, cell-free; conditions: read-out: Stability
[17] = tested on: Rattus norvegicus; test: Inhibition of thrombosis in anteriovenous bypassed rat at 30 mg/kg relative to control; type: functional
[18] = Stability in human plasma assessed as compound remaining measured at 60 mins relative to control; type: ADME, cell-free; conditions: read-out: Stability
[19] = Stability in human plasma assessed as compound remaining measured at 120 mins relative to control; type: ADME, cell-free; conditions: read-out: Stability
[20] = Toxicity in beagle dog assessed as death at 2000 mg/kg oral gavage observed for 14 days; type: organism-based, Canis lupus familiaris; conditions: in vivo, 336 h, time 14 day
[21] = species: Rattus norvegicus; test: Inhibition of thrombosis in anteriovenous bypassed rat; type: functional
[22] = Toxicity in beagle dog assessed as decrease in platelet aggregation at 100 mg/kg/day oral gavage observed for 14 days; type: organism-based, Canis lupus familiaris; conditions: in vivo, 336 h, time 14 day
[23] = tested on: Rattus norvegicus; test: Inhibition of thrombosis in anteriovenous bypassed rat at 1 mg/kg relative to control; type: functional
[24] = Stability in human plasma assessed as compound remaining measured at 300 mins relative to control; type: ADME, cell-free; conditions: read-out: Stability
[25] = Toxicity in rat assessed as bleeding time by tail cutting assay; conditions: in vivo
[26] = tested on: Rattus norvegicus; test: Inhibition of thrombosis in anteriovenous bypassed rat at 3 mg/kg relative to control; type: functional
[27] = Toxicity in beagle dog assessed as mydriasis at 100 mg/kg/day oral gavage observed for 14 days; type: organism-based, Canis lupus familiaris; conditions: in vivo, 336 h, time 14 day
[28] = Toxicity in beagle dog assessed as ALT level at 100 to 300 mg/kg/day oral gavage observed for 14 days; type: organism-based, Canis lupus familiaris; conditions: in vivo, 336 h, dose 100-300 mg/kg/day, time 14 day
[29] = Toxicity in beagle dog assessed as ALP level at 100 to 300 mg/kg/day oral gavage observed for 14 days; type: organism-based, Canis lupus familiaris; conditions: in vivo, 336 h, dose 100-300 mg/kg/day, time 14 day
[30] = Toxicity in beagle dog assessed as emesis at 100 mg/kg/day oral gavage observed for 14 days; type: organism-based, Canis lupus familiaris; conditions: in vivo, 336 h, time 14 day
[31] = Toxicity in beagle dog assessed as abnormality in blood and biochemical index at 100 to 300 mg/kg/day oral gavage observed for 14 days; type: organism-based, Canis lupus familiaris; conditions: in vivo, 336 h, dose 100-300 mg/kg/day, time 14 day
[32] = tested on: Rattus norvegicus; test: Anti-platelet activity against ADP-induced platelet aggregation in rat assessed as inhibition of platelet aggregation at 0.75 mg/kg relative to control; type: functional
[33] = Stability in human plasma assessed as compound remaining measured at 150 mins relative to control; type: ADME, cell-free; conditions: read-out: Stability
[34] = Stability in human plasma assessed as compound remaining measured at 360 mins relative to control; type: ADME, cell-free; conditions: read-out: Stability
[35] = Toxicity in beagle dog assessed as abnormality in blood and biochemical index at 2000 mg/kg oral gavage observed for 14 days; type: organism-based, Canis lupus familiaris; conditions: in vivo, 336 h, time 14 day
[36] = Toxicity in rat assessed as bleeding time by measuring ratio of ED200 to ED50 ratio by tail cutting assay; conditions: in vivo
[37] = tested on: Rattus norvegicus; test: Anti-platelet activity against ADP-induced platelet aggregation in rat assessed as inhibition of platelet aggregation at 1.5 mg/kg relative to control; type: functional
[38] = Toxicity in beagle dog assessed as swelling of hepatocyte at 100 mg/kg/day oral gavage observed for 14 days; type: organism-based, Canis lupus familiaris; conditions: hepatocytes, 336 h, time 14 day
[39] = tested on: Rattus norvegicus; test: Anti-platelet activity against ADP-induced platelet aggregation in rat assessed as inhibition of platelet aggregation at 3 mg/kg relative to control; type: functional
[40] = Stability in human plasma assessed as compound remaining measured at 180 mins relative to control; type: ADME, cell-free; conditions: read-out: Stability
[41] = Toxicity in beagle dog assessed as electrocardiogram at 2000 mg/kg oral gavage observed for 14 days; type: organism-based, Canis lupus familiaris; conditions: in vivo, 336 h, time 14 day
[42] = Toxicity in beagle dog assessed as vomiting at 100 to 300 mg/kg/day oral gavage observed for 14 days; type: organism-based, Canis lupus familiaris; conditions: in vivo, 336 h, dose 100-300 mg/kg/day, time 14 day
[43] = Toxicity in beagle dog assessed as increase in liver weight at 100 mg/kg/day oral gavage observed for 14 days; type: organism-based, Canis lupus familiaris; conditions: in vivo, 336 h, time 14 day
[44] = Toxicity in beagle dog assessed as increase in ALP at 100 mg/kg/day oral gavage observed for 14 days; type: organism-based, Canis lupus familiaris; conditions: in vivo, 336 h, time 14 day
[45] = Stability in human plasma assessed as compound remaining measured at 240 mins relative to control; type: ADME, cell-free; conditions: read-out: Stability
[46] = Toxicity in beagle dog assessed as dilated pupil at 100 to 300 mg/kg/day oral gavage observed for 14 days; type: organism-based, Canis lupus familiaris; conditions: in vivo, 336 h, dose 100-300 mg/kg/day, time 14 day
[47] = Toxicity in beagle dog assessed as electrocardiogram at 100 to 300 mg/kg/day oral gavage observed for 14 days; type: organism-based, Canis lupus familiaris; conditions: in vivo, 336 h, dose 100-300 mg/kg/day, time 14 day

Structure (SMILES): CC/C=C/C(=O)Oc1cc2c(s1)CCN([C@H](C(=O)OC)c1ccccc1Cl)C2
inhibition in vivo at 2 mg/kg [1]: 62.9%
inhibition in vivo at 0.5 mg/kg [2]: 26.2%
inhibition in vivo at 1 mg/kg [3]: 38.2%
inhibition in vivo at 4 mg/kg [4]: 78.4%
inhibition in vivo at 8 mg/kg [5]: 100%
ED50 [6]: 1.23 mg/kg

Structure (SMILES): CCC/C=C/C(=O)Oc1cc2c(s1)CCN([C@H](C(=O)OC)c1ccccc1Cl)C2
inhibition in vivo at 2 mg/kg [1]: 74.3%
inhibition in vivo at 0.5 mg/kg [2]: 19.5%
inhibition in vivo at 1 mg/kg [3]: 52.8%

remaining at 1.5 h [8]: 94%
remaining at 5 min [9]: 106%
remaining at 10 min [10]: 102%
remaining at 20 min [11]: 100%
remaining at 0.5 h [14]: 104%
remaining at 0.75 h [16]: 101%
remaining at 1 h [18]: 100%
remaining at 2 h [19]: 96%
Structure (SMILES): COC(=O)[C@H](c1ccccc1Cl)N1CCc2sccc2C1 [CLOPIDOGREL]
inhibition in vivo at 5 mg/kg [7]: 59.7%
inhibition in vivo at 10 mg/kg [12]: 41.5%
inhibition in vivo at 2.5 mg/kg [13]: 26.5%
inhibition in vivo at 10 mg/kg [15]: 90.5%
inhibition in vivo at 30 mg/kg [17]: 72.6%

Structure (SMILES): C/C=C/C=C/C(=O)Oc1cc2c(s1)CCN([C@H](C(=O)OC)c1ccccc1Cl)C2
Activity [20]: Non-Toxic
ED50 [21]: 11.8 mg/kg
Activity [22]: Toxic
inhibition in vivo at 1 mg/kg [23]: 36.5%
remaining at 5 h [24]: 20.9%
ED200 [25]: 0.822 mg/kg
remaining at 1.5 h [8]: 63.8%
inhibition in vivo at 3 mg/kg [26]: 40.3%
Activity [27]: Toxic
Activity [28]: Non-Toxic
Activity [29]: Non-Toxic
Activity [30]: Toxic
Activity [31]: Non-Toxic
inhibition in vivo at 0.75 mg/kg [32]: 7%
remaining at 5 min [9]: 93.5%
remaining at 10 min [10]: 92.8%
remaining at 2.5 h [33]: 46.7%
remaining at 20 min [11]: 97.1%
remaining at 6 h [34]: 14.8%
Activity [35]: Non-Toxic
inhibition in vivo at 10 mg/kg [12]: 52.1%
selectivity ratio [36]: 0.52
remaining at 0.5 h [14]: 86.6%
inhibition in vivo at 1.5 mg/kg [37]: 50.8%
Activity [38]: Toxic
inhibition in vivo at 3 mg/kg [39]: 85.8%
remaining at 3 h [40]: 43%
Activity [41]: Non-Toxic
remaining at 0.75 h [16]: 83.9%
inhibition in vivo at 30 mg/kg [17]: 68.6%
Activity [42]: Non-Toxic
remaining at 1 h [18]: 76.8%
Activity [43]: Toxic
Activity [44]: Toxic
remaining at 4 h [45]: 30%
Activity [46]: Non-Toxic
Activity [47]: Non-Toxic
remaining at 2 h [19]: 62.9%
